Reference: publication PMC13128454, “Mutant p53 protein accumulation is selectively targetable by proximity-inducing drugs” (Nature Chemical Biology, 2025)
pEC50, pIC50, pKd: −log10 of the molar value. “And” between values parts separate entries of the source, which are not always exact repeats. Equal entries are not always repeated. Where two headings read alike, the source gives them in different places.

Key:
[1] = test system: Calu-1 cells stably expressing Halo–p53-R273H (FL)–mCherry versus parental Calu-1 cells; experiment: flow-cytometry growth competition; type: cell-based; settings: sheet S2E
Experimental: (§1) Cells with and without a fluorescent marker (for example, Halo–p53–mCherry) were mixed and the resulting solution was plated in six-well plates or 10-cm dishes at low density; compound was added at varying concentrations. After reaching confluence, cells were passaged and retreated with compound if needed. Otherwise, cells were trypsinized, washed and resuspended in complete growth medium in 96-well plates or tubes for flow cytometry. Untreated cell mixtures were used to establish gates separating the fluorophore^+/− populations. Analysis was conducted on a CytoFLEX LX flow cytometer.

[2] = test system: Halo–p53-R273H (FL)–mCherry 293T cells versus parental 293T cells; experiment: flow-cytometry growth competition; type: cell-based
Experimental: as §1

[3] = test system: Halo–p53-Y220C ΔTAD–mCherry 293T cells versus parental 293T cells; experiment: flow-cytometry growth competition; type: cell-based; settings: for mCherry_percent: 8 days, untreated 39.76; for activity / difference in cell survival in competition: 8-day competition; for normalized_mCherry_percentage: Y220C, day 8, normalized to DMSO; for Viability competition, AVERAGE: average of 3 replicates; for pIC50 / Emax: viability competition (sheet 5B); for Emax: lowest average of sheet 5A; for pEC50: growth competition analyzed on day 10, n = 3, read-out: Competition EC50
Experimental: as §1

[4] = target: T1, p53-Y220C–PLK1 ternary complex (Homo sapiens, UniProt P04637+P53350, M133L/N239Y/N268D/V203A/Y220C); experiment: NanoBiT ternary complex assay in cotransfected 293T cells; type: cell-based
T1 construct: NLS–LgBiT–p53-Y220C (DBD) and mEGFP–PLK1–SmBiT; expressed in transfected cells; host or cells: 293T cells, transient cotransfection
Excerpt: After 1 day, the cells were passaged into 384-well plates and treated with varying concentrations of compound.

WEE1 = test system: WEE1; set-up: method as in PMID 19887545; settings: cell-free; read-out: IC50 for cell-free WEE1 inhibition; cited from earlier work
[5] = test system: cancer cell lines across DepMap; set-up: method as in DepMap; settings: antiproliferative; PRISM OncRef; ref DepMap; read-out: median IC50 across DepMap; cited from earlier work
MFE319 cells = experiment: CellTiter-Glo cell viability; type: cell-based; set-up: p5301_AUC_to_10uM / AUC_rezatapopt: scale not given here; settings: MFE319
Experimental: (§2) Cells were plated in 384-well plates (typically 1,500 cells per well) with varying concentrations of compounds, with a total volume of 50 μl per well. CTG reagent was added (25 μl) to the solutions, mixed and read out using an EnVision 2105 multimode plate reader.

DU145 cells = experiment: CellTiter-Glo cell viability; type: cell-based; set-up: AUC_rezatapopt: unit not given beside the values
Experimental: as §2

HepG2 cells = experiment: CellTiter-Glo cell viability; type: cell-based; set-up: AUC_rezatapopt: unit not given beside the values
Experimental: as §2

Huh7 cells = experiment: CellTiter-Glo cell viability; type: cell-based; set-up: AUC_rezatapopt: unit not given beside the values
Experimental: as §2

LNCaP cells = experiment: CellTiter-Glo cell viability; type: cell-based; set-up: AUC_rezatapopt: unit not given beside the values; settings: LNCaP
Experimental: as §2

MCF7 cells = experiment: CellTiter-Glo cell viability; type: cell-based; set-up: AUC_rezatapopt: unit not given beside the values
Experimental: as §2

MFE296 cells = experiment: CellTiter-Glo cell viability; type: cell-based; set-up: AUC_rezatapopt: unit not given beside the values
Experimental: as §2

NUGC-3 cells = experiment: CellTiter-Glo cell viability; type: cell-based; set-up: AUC_rezatapopt: unit not given beside the values; settings: NUGC3
Experimental: as §2

p53-Y220C = settings: cited from earlier work
[6] = 24 h, n = 4, read-out: NanoBiT EC50

## CC[C@@H]1C(=O)N(C)c2cnc(Nc3ccc(C(=O)NCCOCCOCCC(=O)NCCOCCOCCCCCCCl)cc3OC)nc2N1C1CCCC1 [HLDA-131]
[1]; 1 nM
  mCherry_percent: 83.77%
[1]; 10 nM
  mCherry_percent: 55.02%
[1]; 100 nM
  mCherry_percent: 4.8%
[1]; 1 uM
  mCherry_percent: 3.52%

## C=CCn1c(=O)c2cnc(Nc3ccc(N4CCN(C(=O)CCOCCOCCC(=O)NCCOCCOCCCCCCCl)CC4)cc3)nc2n1-c1cccc(C(C)(C)O)n1 [Halo-PEG2-adavosertib]
[2]; Homo sapiens, HEK-293T, Halo–p53-R273H (FL)–mCherry 293T cells as printed, Extended Data Fig. 2f
  pEC50: 7.39
[2]; doses between 100 nM and 1 μM, cells as printed
  selective inhibition of proliferation in competition assay: selectively inhibited the proliferation
[3]; 100 nM
  mCherry_percent: 10.55%
[3]; 1 uM
  mCherry_percent: 4.24%
[3]; 10 uM
  mCherry_percent: 26.57%

## C=CC(=O)n1c2ccccc2c2cc(C(=O)NCc3cn(CCOCCOCCOCCOCCNC(=O)c4ccc(Nc5ncc6c(n5)N(C5CCCC5)[C@H](CC)C(=O)N6C)c(OC)c4)nn3)ccc21 [KG5-PEG4-BI2536]
[3]
  activity / difference in cell survival in competition: did not observe any difference in cell survival
[3]; 1 nM
  normalized_mCherry_percentage: 98.99%
[3]; 10 nM
  normalized_mCherry_percentage: 99.96%
[3]; 100 nM
  normalized_mCherry_percentage: 100.2%
[3]; 1 uM
  normalized_mCherry_percentage: 99.83%

## CC[C@@H]1C(=O)N(C)c2cnc(Nc3ccc(C(=O)NCCOCCOCCOCCOCCC(=O)N4CCC(Nc5cccc6c5cc(C#CCNc5ccc(S(C)(=O)=O)cc5OC)n6CC(F)(F)F)CC4)cc3OC)nc2N1C1CCCC1 [PEG4 (p53-01)]
[3]; Concentration (nM) 10
  Viability competition, Replicate 1-3: 0.6959 and 0.6663 and 0.6621
  Viability competition, AVERAGE: 0.6748
[3]; Concentration (nM) 100
  Viability competition, Replicate 1-3: 0.7132 and 0.7004 and 0.6708
  Viability competition, AVERAGE: 0.6948
[3]; Concentration (nM) 500
  Viability competition, Replicate 1-3: 0.6679 and 0.6445 and 0.6361
  Viability competition, AVERAGE: 0.6495
[3]; Concentration (nM) 1000
  Viability competition, Replicate 1-3: 0.309 and 0.295 and 0.2813
  Viability competition, AVERAGE: 0.2951
[3]; Concentration (nM) 2000
  Viability competition, Replicate 1-3: 0.1194 and 0.1119 and 0.1123
  Viability competition, AVERAGE: 0.1145
[3]; Concentration (nM) 5000
  Viability competition, Replicate 1-3: 0.1698 and 0.1509 and 0.1508
  Viability competition, AVERAGE: 0.1572
[3]
  pIC50: 6.07
  Emax: 0.1145

## CC[C@@H]1C(=O)N(C)c2cnc(Nc3ccc(C(=O)NCCC(=O)N4CCC(Nc5cccc6c5cc(C#CCNc5ccc(S(C)(=O)=O)cc5OC)n6CC(F)(F)F)CC4)cc3OC)nc2N1C1CCCC1 [PMV6-C3-BI2536]
[3]; Concentration (nM) 10
  Viability competition, AVERAGE: 0.6993
[3]; Concentration (nM) 10, listed as C3
  Viability competition, Replicate 1-3: 0.706 and 0.7024 and 0.6895
[3]; Concentration (nM) 100
  Viability competition, AVERAGE: 0.1737
[3]; Concentration (nM) 100, listed as C3
  Viability competition, Replicate 1-3: 0.1753 and 0.1712 and 0.1746
[3]; Concentration (nM) 500
  Viability competition, AVERAGE: 0.1322
[3]; Concentration (nM) 500, listed as C3
  Viability competition, Replicate 1-3: 0.1474 and 0.1221 and 0.127
[3]; Concentration (nM) 1000
  Viability competition, AVERAGE: 0.1085
[3]; Concentration (nM) 1000, listed as C3
  Viability competition, Replicate 1-3: 0.1425 and 0.0972 and 0.0859
[3]; Concentration (nM) 2000
  Viability competition, AVERAGE: 0.0794
[3]; Concentration (nM) 2000, listed as C3
  Viability competition, Replicate 1-3: 0.0894 and 0.0623 and 0.0865
[3]; Concentration (nM) 5000
  Viability competition, AVERAGE: 0.1321
[3]; Concentration (nM) 5000, listed as C3
  Viability competition, Replicate 1-3: 0.1277 and 0.1154 and 0.1531
[3]; day 10
  potency versus p53-01 in the competition assay: over 1.5 orders of magnitude
[3]
  pEC50: 7.60
  pIC50: 7.60
  Emax: 0.0794
[4]; [6]
  pEC50: 6.39
[4]; Concentration 19.5312
  NanoBiT mean_norm: 1.06
[4]; Concentration 39.0625
  NanoBiT mean_norm: 1.117
[4]; Concentration 78.125
  NanoBiT mean_norm: 1.1621
[4]; Concentration 156.25
  NanoBiT mean_norm: 1.171
[4]; Concentration 312.5
  NanoBiT mean_norm: 1.264
[4]; Concentration 625
  NanoBiT mean_norm: 1.76
[4]; Concentration 1250
  NanoBiT mean_norm: 1.765
[4]; Concentration 2500
  NanoBiT mean_norm: 1.801
[4]; Concentration 5000
  NanoBiT mean_norm: 1.856
[4]; Concentration 10000
  NanoBiT mean_norm: 1.853
[4]; sheet 5C
  Max_effect: 1.856
[4]; sheet 5C, read-out: EC50
  pEC50: 6.39

## C=CCn1c(=O)c2cnc(Nc3ccc(N4CCN(C)CC4)cc3)nc2n1-c1cccc(C(C)(C)O)n1 [adavosertib]
WEE1
  pIC50: 8.28
[5]
  pIC50: 6.46

## CNC(=O)c1ccc(NCC#Cc2cc3c(N[C@@H]4CCN(C)C[C@@H]4F)cccc3n2CC(F)(F)F)c(OC)c1 [rezatapopt]
MFE319 cells
  AUC_rezatapopt: 0.8525
DU145 cells
  AUC_rezatapopt: 1
HepG2 cells
  AUC_rezatapopt: 0.9433
Huh7 cells
  AUC_rezatapopt: 0.6525
LNCaP cells
  AUC_rezatapopt: 0.9713
MCF7 cells
  AUC_rezatapopt: 0.9331
MFE296 cells
  AUC_rezatapopt: 0.5683
NUGC-3 cells
  AUC_rezatapopt: 0.5908
p53-Y220C
  pKd: ~8.60

## O=C(/C=C\n1cnc(-c2cc(C(F)(F)F)cc(C(F)(F)F)c2)n1)NNc1cnccn1 [selinexor]
[3]
  activity / difference in cell survival in competition: did not observe any activity
[3]; 1 nM
  normalized_mCherry_percentage: 98.56%
[3]; 10 nM
  normalized_mCherry_percentage: 98.63%
[3]; 100 nM
  normalized_mCherry_percentage: 103.2%
[3]; 1 uM
  normalized_mCherry_percentage: 99.86%

## AP1867-C8-BI2536
[3]
  activity / difference in cell survival in competition: did not observe any activity
[3]; 1 nM
  normalized_mCherry_percentage: 97.6%
[3]; 10 nM
  normalized_mCherry_percentage: 98.26%
[3]; 100 nM
  normalized_mCherry_percentage: 98.72%
[3]; 1 uM
  normalized_mCherry_percentage: 93.37%

## PEG6
[3]; Concentration (nM) 10
  Viability competition, Replicate 1-3: 0.5239 and 0.6471 and 0.659
  Viability competition, AVERAGE: 0.61
[3]; Concentration (nM) 100
  Viability competition, Replicate 1-3: 0.5384 and 0.6799 and 0.6767
  Viability competition, AVERAGE: 0.6317
[3]; Concentration (nM) 500
  Viability competition, Replicate 1-3: 0.4819 and 0.6302 and 0.6328
  Viability competition, AVERAGE: 0.5816
[3]; Concentration (nM) 1000
  Viability competition, Replicate 1-3: 0.2653 and 0.295 and 0.3011
  Viability competition, AVERAGE: 0.2871
[3]; Concentration (nM) 2000
  Viability competition, Replicate 1-3: 0.064 and 0.0676 and 0.0785
  Viability competition, AVERAGE: 0.07003
[3]; Concentration (nM) 5000
  Viability competition, Replicate 1-3: 0.1113 and 0.1194 and 0.102
  Viability competition, AVERAGE: 0.1109
[3]
  pEC50: 6.05
  pIC50: 6.05
  Emax: 0.07003
[4]; [6]
  pEC50: 5.43
[4]; Concentration 19.5312
  NanoBiT mean_norm: 1.005
[4]; Concentration 39.0625
  NanoBiT mean_norm: 0.9853
[4]; Concentration 78.125
  NanoBiT mean_norm: 1.029
[4]; Concentration 156.25
  NanoBiT mean_norm: 1.026
[4]; Concentration 312.5
  NanoBiT mean_norm: 1.029
[4]; Concentration 625
  NanoBiT mean_norm: 1.011
[4]; Concentration 1250
  NanoBiT mean_norm: 1.186
[4]; Concentration 2500
  NanoBiT mean_norm: 1.25
[4]; Concentration 5000
  NanoBiT mean_norm: 1.542
[4]; Concentration 10000
  NanoBiT mean_norm: 1.6853
[4]; sheet 5C
  Max_effect: 1.6853
[4]; sheet 5C, read-out: EC50
  pEC50: 5.43
